This note sets out measurements from patent publication US20250136576A1, “Heterocyclic Compounds and Uses Thereof” (ACEA Therapeutics, Inc., priority 2021, published 2025).

pIC50: −log10 of the molar value.

One test concerns KM12-luc cells. As to the kind of experiment: Cell proliferation and growth inhibition assay (CCK-8) in KM12-luc. It counts as cell-based. The note with it: KM12-Luc, 72 h, KM12-luc cells, treated with test compounds for 72 hrs, CCK-8 viability; read-out: NTRK IC50 in KM12-luc. As for the experimental part:
MV-4-11 and H1975 cells were obtained from the American Type Culture Collection and KM12-luc cells were obtained from JCRB Cell Bank. All cell lines were maintained at 37° C. with 5% C02, in media supplemented with 10% fetal bovine serum and penicillin (100 units/mL) and streptomycin (100 μg/mL). MV-4-11 cells were maintained in Iscove's Modified Dubecco's Medium, H1975 cells were cultured with RPMI 1640 media, and KM12-luc cells were maintained in Dulbecco's Modification of Eagle's Medium. CCK-8 reagent was obtained from Yeasen. Cell proliferation was assessed by CCK-8 assay (Yeasen) per the manufacturer's instructions. […] Cell viability was assayed by incubating the cells with CCK-8 reagent for 1-4 hrs. Absorbance was measured at OD450 using the Beckman DTX880. The data was calculated using GraphPad Prism version 6.01. The IC50 values were fitted using a non-linear regression model with a sigmoidal dose response.
For the compound `CN(C)CCN(C)c1ccc(Nc2nc(-c3cn(C)c4ccccc34)c3cc[nH]c3n2)cc1NS(C)(=O)=O` [Compound 205c, N-(2-((2-(dimethylamino)ethyl)(methyl)amino)-5-((4-(1-methyl-1H-indol-3-yl)-7H-pyrrolo[2,3-d]pyrimidin-2-yl)amino)phenyl)methanesulfonamide], the pIC50 was 6.48.

As for `CN(C)CCN(C)c1ccc(Nc2nc(-c3cn(C)c4ccccc34)c3cc[nH]c3n2)cc1S(C)(=O)=O` [Compound 206, N^1-(2-(dimethylamino)ethyl)-N^1-methyl-N^4-(4-(1-methyl-1H-indol-3-yl)-7H-pyrrolo[2,3-d]pyrimidin-2-yl)-2-(methylsulfonyl)benzene-1,4-diamine], the pIC50 was 6.75. The same measure, in the same setting: the figure for `CN(C)CCN(C)c1ccc(Nc2nc(-c3cn(C)c4ccccc34)c3cc[nH]c3n2)cc1N(C)C` [Compound 207, N^1-(2-(dimethylamino)ethyl)-N^1,N^2,N^2-trimethyl-N^4-(4-(1-methyl-1H-indol-3-yl)-7H-pyrrolo[2,3-d]pyrimidin-2-yl)benzene-1,2,4-triamine] is 6.46; for `CCN(CCN(C)C)c1ccc(Nc2nc(-c3cn(C)c4ccccc34)c3cc[nH]c3n2)cc1F` [Compound 208, N^1-(2-(dimethylamino)ethyl)-N^1-ethyl-2-fluoro-N^4-(4-(1-methyl-1H-indol-3-yl)-7H-pyrrolo[2,3-d]pyrimidin-2-yl)benzene-1,4-diamine] it is 6.42. Regarding `CCN(CCN(C)C)c1ccc(Nc2nc(-c3cn(C)c4ccccc34)c3cc[nH]c3n2)cc1N` [Compound 211, N^1-(2-(dimethylamino)ethyl)-N^1-ethyl-N^4-(4-(1-methyl-1H-indol-3-yl)-7H-pyrrolo[2,3-d]pyrimidin-2-yl)benzene-1,2,4-triamine], the pIC50 was 7.39. The same measure, in the same setting: the figure for `C=CC(=O)Nc1cc(Nc2nc(-c3cn(C)c4ccccc34)c3cc[nH]c3n2)ccc1N(CC)CCN(C)C` [Compound 212a, N-(2-((2-(dimethylamino)ethyl)(ethyl)amino)-5-((4-(1-methyl-1H-indol-3-yl)-7H-pyrrolo[2,3-d]pyrimidin-2-yl)amino)phenyl)acrylamide] is 7.20; for `CCN(CCN(C)C)c1ccc(Nc2nc(-c3cn(C)c4ccccc34)c3cc[nH]c3n2)cc1NC(=O)C(C)C` [Compound 212d, N-(2-((2-(dimethylamino)ethyl)(ethyl)amino)-5-((4-(1-methyl-1H-indol-3-yl)-7H-pyrrolo[2,3-d]pyrimidin-2-yl)amino)phenyl)isobutyramide] it is 7.03. Same read-out and setting: the figure for `CCN(CCN(C)C)c1ccc(Nc2nc(-c3cn(C)c4ccccc34)c3cc[nH]c3n2)cc1NCCF` [Compound 212e, N^1-(2-(dimethylamino)ethyl)-N^1-ethyl-N^2-(2-fluoroethyl)-N^4-(4-(1-methyl-1H-indol-3-yl)-7H-pyrrolo[2,3-d]pyrimidin-2-yl)benzene-1,2,4-triamine] is 5.47; for `CC(=O)Nc1cc(Nc2nc(-c3c[nH]c4cccc(F)c34)c3cc[nH]c3n2)ccc1N(C)CCN(C)C` [Compound 216, N-(2-((2-(dimethylamino)ethyl)(methyl)amino)-5-((4-(4-fluoro-1H-indol-3-yl)-7H-pyrrolo[2,3-d]pyrimidin-2-yl)amino)phenyl)acetamide] it is 7.30; for `CC(=O)Nc1cc(Nc2nc(-c3cn(C)c4cccc(F)c34)c3cc[nH]c3n2)ccc1N(C)CCN(C)C` [Compound 218, N-(2-((2-(dimethylamino)ethyl)(methyl)amino)-5-((4-(4-fluoro-1-methyl-1H-indol-3-yl)-7H-pyrrolo[2,3-d]pyrimidin-2-yl)amino)phenyl)acetamide] it is 6.99. Same read-out and setting: the figure for `CCN(CCN(C)C)c1cc(F)c(Nc2nc(-c3cn(C)c4cccc(F)c34)c3cc[nH]c3n2)cc1NC(C)=O` [Compound 222, N-(2-((2-(dimethylamino)ethyl)(ethyl)amino)-4-fluoro-5-((4-(4-fluoro-1-methyl-1H-indol-3-yl)-7H-pyrrolo[2,3-d]pyrimidin-2-yl)amino)phenyl)acetamide] is 5.84; for `CC(=O)Nc1cc(Nc2nc(-c3cn(C)c4cc(F)c(F)cc34)c3cc[nH]c3n2)ccc1N(C)CCN(C)C` [Compound 237, N-(5-((4-(5,6-difluoro-1-methyl-1H-indol-3-yl)-7H-pyrrolo[2,3-d]pyrimidin-2-yl)amino)-2-((2-(dimethylamino)ethyl)(methyl)amino)phenyl)acetamide] it is 6.27. Turning to `Cc1ccc2[nH]cc(-c3nc(Nc4ccc(N(C)CCN(C)C)c(N(C)C)c4)nc4[nH]ccc34)c2c1` [Compound 239, N^1-(2-(dimethylamino)ethyl)-N^1,N^2,N^2-trimethyl-N^4-(4-(5-methyl-1H-indol-3-yl)-7H-pyrrolo[2,3-d]pyrimidin-2-yl)benzene-1,2,4-triamine], the pIC50 was 6.29. On the same count and under the same terms, the figure for `CC(=O)Nc1cc(Nc2nc(-c3cn(C)c4ccc(C)cc34)c3cc[nH]c3n2)ccc1N(C)CCN(C)C` [Compound 244, N-(5-((4-(1,5-dimethyl-1H-indol-3-yl)-7H-pyrrolo[2,3-d]pyrimidin-2-yl)amino)-2-((2-(dimethylamino)ethyl)(methyl)amino)phenyl)acetamide] is 6.46.

As for `CCn1cc(-c2nc(Nc3ccc(N(C)CCN(C)C)c(NC(C)=O)c3)nc3[nH]ccc23)c2cc(F)ccc21` [Compound 246, N-(2-((2-(dimethylamino)ethyl)(methyl)amino)-5-((4-(1-ethyl-5-fluoro-1H-indol-3-yl)-7H-pyrrolo[2,3-d]pyrimidin-2-yl)amino)phenyl)acetamide], the pIC50 is 7.16. On the same count and under the same terms, under `CC(=O)Nc1cc(Nc2nc(-c3cn(C)c4ccccc34)c3c(F)c[nH]c3n2)ccc1N(C)CCN(C)C` [Compound 253, N-(2-((2-(dimethylamino)ethyl)(methyl)amino)-5-((5-fluoro-4-(1-methyl-1H-indol-3-yl)-7H-pyrrolo[2,3-d]pyrimidin-2-yl)amino)phenyl)acetamide] stands 7.01.

Still in this test, the particulars now being: KM12-Luc, 72 h, read-out: NTRK IC50 in KM12-luc.
Take `CCNc1cc(Nc2nc(-c3cn(C)c4ccccc34)c3cc[nH]c3n2)ccc1N(C)CCN(C)C` [Compound 205b, N^1-(2-(dimethylamino)ethyl)-N^2-ethyl-N1-methyl-N^4-(4-(1-methyl-1H-indol-3-yl)-7H-pyrrolo[2,3-d]pyrimidin-2-yl)benzene-1,2,4-triamine]: the pIC50 was 6.52. `CCN(CCN(C)C)c1ccc(Nc2nc(-c3cn(C)c4ccccc34)c3cc[nH]c3n2)cc1NC(C)=O` [Compound 212c, N-(2-((2-(dimethylamino)ethyl)(ethyl)amino)-5-((4-(1-methyl-1H-indol-3-yl)-7H-pyrrolo[2,3-d]pyrimidin-2-yl)amino)phenyl)acetamide]: the pIC50 is 7.36. Still for that read-out and setting: the figure for `CCNc1cc(Nc2nc(-c3cn(C)c4ccccc34)c3cc[nH]c3n2)ccc1N(CC)CCN(C)C` [Compound 212f, N^1-(2-(dimethylamino)ethyl)-N^1,N^2-diethyl-N^4-(4-(1-methyl-1H-indol-3-yl)-7H-pyrrolo[2,3-d]pyrimidin-2-yl)benzene-1,2,4-triamine] is 6.26; for `CC(=O)Nc1cc(Nc2nc(-c3cn(C)c4ccc(F)cc34)c3cc[nH]c3n2)ccc1N(C)CCN(C)C` [Compound 227a, N-(2-((2-(dimethylamino)ethyl)(methyl)amino)-5-((4-(5-fluoro-1-methyl-1H-indol-3-yl)-7H-pyrrolo[2,3-d]pyrimidin-2-yl)amino)phenyl)acetamide] it is 6.24; for `CCNc1cc(Nc2nc(-c3cn(C)c4ccc(F)cc34)c3cc[nH]c3n2)ccc1N(C)CCN(C)C` [Compound 227b, N^1-(2-(dimethylamino)ethyl)-N^2-ethyl-N^4-(4-(5-fluoro-1-methyl-1H-indol-3-yl)-7H-pyrrolo[2,3-d]pyrimidin-2-yl)-N^1-methylbenzene-1,2,4-triamine] it is 6.17.

`CCN(CCN(C)C)c1ccc(Nc2nc(-c3cn(C)c4ccc(F)cc34)c3cc[nH]c3n2)cc1NC(C)=O` [Compound 227c, N-(2-((2-(dimethylamino)ethyl)(ethyl)amino)-5-((4-(5-fluoro-1-methyl-1H-indol-3-yl)-7H-pyrrolo[2,3-d]pyrimidin-2-yl)amino)phenyl)acetamide]: the pIC50 was 6.36. Still for that read-out and setting: the figure for `CCNc1cc(Nc2nc(-c3cn(C)c4ccc(F)cc34)c3cc[nH]c3n2)ccc1N(CC)CCN(C)C` [Compound 227d, N^1-(2-(dimethylamino)ethyl)-N^1,N^2-diethyl-N^4-(4-(5-fluoro-1-methyl-1H-indol-3-yl)-7H-pyrrolo[2,3-d]pyrimidin-2-yl)benzene-1,2,4-triamine] is 5.70; for `CC(=O)Nc1cc(Nc2nc(-c3cn(C)c4cc(F)ccc34)c3cc[nH]c3n2)ccc1N(C)CCN(C)C` [Compound 232a, N-(2-((2-(dimethylamino)ethyl)(methyl)amino)-5-((4-(6-fluoro-1-methyl-1H-indol-3-yl)-7H-pyrrolo[2,3-d]pyrimidin-2-yl)amino)phenyl)acetamide] it is 7.07.

In the case of `CCNc1cc(Nc2nc(-c3cn(C)c4cc(F)ccc34)c3cc[nH]c3n2)ccc1N(C)CCN(C)C` [Compound 232b, N^1-(2-(dimethylamino)ethyl)-N^2-ethyl-N^4-(4-(6-fluoro-1-methyl-1H-indol-3-yl)-7H-pyrrolo[2,3-d]pyrimidin-2-yl)-N^1-methylbenzene-1,2,4-triamine], the pIC50 was 6.31.

As usually defined, the pIC50 is the negative decadic logarithm of the IC50, by convention in mol/L.
